This is an account of results in patent publication US8133971B2, “Polypeptide specifically bound to phosphatidylserine and the use thereof” (Kyungpook National University Industry Academic Cooperation …, priority 2008, dated 2012).

Series [1] has as its system H460 tumor xenografts. As to the kind of experiment: in vivo homing and in vivo/ex vivo visualization in tumor xenografts. Particulars: for in vivo fluorescein signal from tumor tissue: 50 μM through tail vein, after 2 hours; for ex vivo fluorescein signal from tumor tissue: tumor removed 2 hours after peptide injection. Details: species or system BALB/c male nude mouse. How it is done:
All of animal experiments are carried out in accordance with guidelines of the kyoungpook national university. For tumor xenografts, H460 cells (1×10^7 cells) floated on RPMI medium containing 10% FBS are injected hypodermically at a right shoulder of a 6 week old BALB/c male nude mouse (SLC, Inc.). Then, tumor cells are allowed to grow about 0.5 to 1.0 cm for 3 weeks.
The mice having tumor cells are divided into a camptothecin treated group and untreated group, and then the camptothecin treated group is taken a dose of camptothecin (Sigma, 10 mg/kg) at 24 hours before peptide treatment. After that, fluorescein-labeled peptide (fluorescein-labeled CLSYYPSYC (SEQ ID NO: 1)) (50 μM) of the present embodiment or a control group peptide (50 μM) is injected through tail vein under isoflurane anesthesia. The peptide induced to the tumor cells are checked at every hour by the optical visualization system (ART Advanced Research Technologies Inc., Montreal, Canada) using […]/GFP filter after peptide injection. To each used mouse, baseline fluorescence of fluorescein is measured before peptide injection. The obtained image is treated and normalized by eXplore Optix optiView Software. After 2 hours of the peptide injection, the tumor is removed from the mouse and then ex vivo visualization of the tumor cell is carried out. The image is treated as above.

For series [2], the system named is apoptotic cells (H460 cell). As to the kind of experiment: competitive inhibition of phage binding to apoptotic cells (phage titer). It counts as cell-based, Human. The following applies: for phage titer of selected phage bound to apoptotic cells after peptide treatment: peptide 50 μM, H460, versus un-treated group. How it is done:
The specificity of the phage to phosphatidylserine bound to apoptotic cells is tested by competitive inhibition with annexin V.
A pre-cultured group, which is cultured for 30 minutes with annexin V (10 μM) before the apoptotic cells (H460 cell) are cultured with the phage, is used for the test. And a control group, which is not pre-cultured with annexin V, is used for the test. Phages are bound and eluted as described in the embodiment 4-1 and then phage titer is measured.
And, phage titer of a group treated with the synthesized peptide (50 μM) according to CLSYYPSYC (SEQ ID NO: 1) of amino acid sequence, which is shown in the selected phage clone, is measured. Phage titer of an un-treated group and a group treated with the peptide of the control group are measured. Phages are bound and eluted as described in the embodiment 4-1 and then phage titer is measured.

The test system of another series is H460 cell. The experiment in a line: FACS analysis of labeled peptide binding to normal or apoptotic cells. It counts as cell-based, Human. Particulars: fluorescein at N-end, 2.5 μM, 15 minutes; for binding of labeled peptide to apoptotic cells by FACS: apoptotic H460 cell. How it is done: Apoptotic cells are treated with a labeled peptide of the present embodiment and then FACS analyses are carried out to confirm that whether the peptide of the present embodiment is bound to phosphatidylserine of apoptotic cells or not.
The peptide used in the present embodiment has a form in which fluorescein is bonded at N-end. The peptide is synthesized according to the standard Fmoc method and separated by HPLC (Peptron Co.) before use.
The final concentration of the peptide of the present embodiment or the control group peptide (amino acid sequence: NSSVDK (SEQ ID NO: 8)) is 2.5 μM and the solution is dissolved in Hepes buffer (pH7.4, Hepes 10 mM, […] 138 mM, and with/without CaCl2). The solution is mixed with normal H460 cell or dead H460 cell (1×10^5 cells/mL) to become 0.5 mL of final volume and then cultured for 15 minutes at room temperature. The cells are washed with a binding buffer and then FACS analyses are immediately carried out (FACSScan, Becton Dickinson, San Jose, Calif.).
On the technique in general: A flow cytometer gives signals particle by particle.

For the next series, the system named is H460 cells. As to the kind of experiment: fluorescence and confocal microscopy of peptide and annexin V marking of cells. It counts as cell-based, Human. Particulars: for marking of apoptotic cells (fluorescent microscope) / marking of normal cells (fluorescent microscope): fluorescein peptide 10 μM, annexin V Alexa fluor 594; for marking of normal cells (fluorescent microscope): normal H460 cells. How it is done: H460 cells are cultured in a chamber slide (Nalgen Nunc Int.) and apoptosis is induced as described in embodiment 4-1. The apoptotic cells are washed with PBS and then the cells are cultured in tyrodes buffer in the presence of a peptide marked with 10 μM of fluorescein for 30 minutes at room temperature. After that, the cells are cultured with annexin V Alexa fluor 594 (Molecular Probes) for 15 minutes at room temperature. The cells are washed with PBS and then fixed with 4% of paraformaldehyde for 5 minutes. After that, the cells are counterstained by 4′,6-diamidino-2-phenylindole (DAPI) and then the cells are treated with a mounting solution to take a picture by fluorescent microscope (Zeiss, Oberkochen, Germany).
Also as shown in the FIG. 4C, the image is taken by a laser confocal microscope (LEICA).

Series [3] deals with H460 tumor xenografts. The experiment in a line: histological test of in vivo homing (CD31 staining, TUNEL, organs). The following applies: for peptide observed in tumor region stained by CD31: fluorescence microscope. From the text: For a histological test, the above mouse undergoes anesthesia and then undergoes laparotomy. PBS and 4% paraformaldehyde (PFA) fixing agent is used for perfusion, and then tumor tissue and organs are removed. After cryosection of each tissue, the peptide of the present embodiment is observed by fluorescence microscope. Tumor vessels are stained by immunohistochemistry using an antibody (BD Pharmigen) to the mouse CD31 and alexa 568 labeled secondary antibody. Cell death in a tumor tissue is verified by TUNEL ([…] terminal deoxynucleotidyl transferase-mediated dUTP nick-end labeling) analyses according to the manufacturer's manual (Chemicon Int. USA).

A short description of series [4]: phosphatidylserine binding of phage clone in the presence of annexin V (phage ELISA). Particulars: annexin V protein 10 μM. How it is done: The phosphatidylserine binding specificity of the selected phage clone is tested by phosphatidylserine binding in the presence of annexin V.
In short, Immulon 1B microtiter plate is coated with phosphatidylcholine as described in the embodiment 1-2. Then, the plates are blocked with TBS medium containing 10 mg/mL of BSA for 1 hour at room temperature.
The selected phage clone is added to 100 μl of TBS buffer and then the mixture is added to the well coated with phosphatidylcholine. The well is gently shaken for 1 hour at room temperature (incubate). In a group in which annexin V is added, the above phage clone is cultured in the presence of annexin V protein (10 μM) and then 100 μl of TBS buffer is added to the phage clone. The mixture is added to the well coated with phosphatidylserine and then the well is gently shaken for 1 hour at room temperature. The well is strongly washed with TBS-T (TBS containing 0.05% Tween-20) buffer for 6 times and then phages bound to the well are detected by binding HRP (horseradish peroxidase)-bound anti-M13 antibody (New England Biolabs) (dilution, 1:4000 in TBS-T) for 1 hour at room temperature. After that, color reaction is carried out with HRP substrate suspension (TMB, Pierce). The color reaction is stopped by adding 2N H2SO4 and then absorbance is measure by the microplate reader (Bio-Rad, model 550) at 450 nm.

Series [5] is described as follows: annexin V binding test of coated plate. Particulars: his-tagged recombinant annexin V 20 μg/mL, 1 hour at room temperature. How it is done:
For the preparation of a plate (or well) coated by phosphatidylserine or phosphatidylcholine, phosphatidylserine or phosphatidylcholine is dissolved in ethanol (300 μg/mL, 100 μL), and then the solution is placed and dried in Immulon 1B microtiter plate (Thermo, Milford, Mass., USA) for 6 hours in air. To prevent from non-specific binding, TBS (Tris-HCl 50 mM, pH7.4, NaCl 150 mM) containing 10 mg/mL of BSA (bovine serum albumin) is added to the solution and then blocking is performed for 1 hours at room temperature. The plates coated by phosphatidylserine or phosphatidylcholine are evaluated by annexin V binding test so as to use a coated plate.
To bind annexin V, his-tagged recombinant annexin V protein (20 μg/mL) is dissolved in TBS buffer containing 10 mg/mL of BSA and then the solution is placed ELISA plate coated by phosphatidylserine or phosphatidylcholine. After 1 hour of standing at room temperature, the plate is washed by TBS-T buffer for 3 times and the bound annexin V protein is reacted with mouse anti histidine IgG antibody (Santa Cruz Biotechnology) to which HRP is bound and then binding is tested by the reaction with TBM base.

Ends that are not written are not given here. fluorescein = fluorescein bonded at the N-terminus

As to “fluorescein-labeled CLSYYPSYC (fluorescein-CLSYYPSYC; cysteine pairing not given here) [… peptide with fluorescein bonded at N-end]”, the “in vivo fluorescein signal from tumor tissue” value in the series with H460 tumor xenografts [1] was “intensively detected”.

As for “NSSVDK [control group peptide, reference compound]”, the “phage titer of selected phage bound to apoptotic cells after peptide treatment” value in series [2] was “no difference”. Further, in the series with H460 cell, the “binding of labeled peptide to apoptotic cells by FACS” value is on record as “not certainly bound”. Besides, the “marking of apoptotic cells (fluorescent microscope)” value (“marking of apoptotic cells” below) in the series with H460 cells (apoptotic H460 cells) was “marking is occurred in annexin V case only”. In the series on H460 tumor xenografts [1], the “in vivo fluorescein signal from tumor tissue” value is given as “very weakly monitored or not monitored” and the “ex vivo fluorescein signal from tumor tissue” value is given as “very weakly monitored or not monitored”. The “peptide observed in tumor region stained by CD31” value in the series on H460 tumor xenografts [3] (cryosection) is “not observed”.

As for “CLSYYPSYC [peptide of the present embodiment]”, in series [2], the “phage titer of selected phage bound to apoptotic cells after peptide treatment” value is on record as “greatly decreased”. Moreover, the “binding of labeled peptide to apoptotic cells by FACS” value with H460 cell is listed as “certainly bound”. Moreover, the “binding of labeled peptide to normal cells by FACS” value in the series on H460 cell (normal H460 cell) is recorded as “not certainly bound”. The “marking of apoptotic cells” value with H460 cells (apoptotic H460 cells) is recorded as “marking is occurred in both cases”. Further, the “binding site on apoptotic cells compared with annexin V” value in the series on H460 cells (apoptotic H460 cells, photo composition / laser confocal microscope) is “bound to the same site”. Moreover, the “marking of normal cells (fluorescent microscope)” value in the series with H460 cells is “marking is not occurred”. Also, the “ex vivo fluorescein signal from tumor tissue” value with H460 tumor xenografts [1] was “intensively monitored”. Also, the “location of peptide fluorescent signal relative to TUNEL staining in tumor” value in the series on H460 tumor xenografts [3] (TUNEL analyses of tumor tissue) is reported as “observed mainly in the TUNEL stained region”. Further, the “peptide observed in liver and lung tissue” value in the series with H460 tumor xenografts [3] (control group organs, cryosection) is reported as “not observed”. For the same substance, in the series with H460 tumor xenografts [3] (cryosection), the “peptide observed in tumor region stained by CD31” value is listed as “a large amount”. Moreover, the “fluorescence by the peptide in kidney” value in the series on H460 tumor xenografts [3] (cryosection, excreted peptide in the uresis path) was “observed”.

On to “annexin V: annexin V protein, phosphatidylserine-binding reference (his-tagged recombinant or Alexa fluor 594 labeled)”, for which the “inhibition of phosphatidylserine binding of the selected phage clone” value in series [4] was “inhibits”. The “phage titer of selected phage bound to apoptotic cells after annexin V pre-treatment” value in series [2] (annexin V 10 μM, pre-cultured 30 minutes, H460) was “greatly decreased”. Further, in the series with H460 cells (apoptotic H460 cells), the “marking of apoptotic cells” value is recorded as “marking is occurred”. In addition, the “marking of normal cells (fluorescent microscope)” value with H460 cells is “marking is not occurred”. Besides, in series [5], the “annexin V binding to coated plate” value is on record as “certainly bound”.
